Test results reported in ChEMBL document CHEMBL4385611, “Difluoromethylene at the γ-Lactam α-Position Improves 11-Deoxy-8-aza-PGE1 Series EP4 Receptor Binding and Activity: 11-Deoxy-10,10-difluoro-8-aza-PGE1 Analog (KMN-159) as a Potent EP4 Agonist” (J Med Chem, 2019).
In brackets after ≈: the same amount, converted by molar mass.

How the values were obtained:
[1] = Apparent permeability across basolateral to apical side in MDCK-MDR1 cells assessed as drug recovery; format: ADME, cell-based, Canis lupus familiaris; settings: dog, read-out: Drug recovery
[2] = Protein binding in human plasma at 10 uM after 4 hrs by HPLC-MS/MS-based equilibrium dialysis method; format: ADME, cell-free; settings: read-out: PPB (converted)
[3] = Mutagenicity in Salmonella typhimurium TA1537 after 96 hrs in absence of rat liver S9 fraction by Ames test; format: toxicity; settings: salmonella enterica subsp. enterica serovar typhimurium, s9, 96 h
[4] = Efflux ratio of apparent permeability from basolateral to apical side over apical to basolateral side in human Caco2 cells at 5 uM after 120 mins by LC-MS/MS analysis; format: ADME, cell-based; settings: Caco-2
Cytochrome P450 2C9 = Cytochrome P450 2C9 (Homo sapiens, UniProt P11712); test: Inhibition of CYP2C9 in human liver microsomes using diclofenac as substrate at uM after 10 mins by HPLC-MS/MS analysis; format: ADME
Cytochrome P450 2C9, sequence (P11712 whole entry): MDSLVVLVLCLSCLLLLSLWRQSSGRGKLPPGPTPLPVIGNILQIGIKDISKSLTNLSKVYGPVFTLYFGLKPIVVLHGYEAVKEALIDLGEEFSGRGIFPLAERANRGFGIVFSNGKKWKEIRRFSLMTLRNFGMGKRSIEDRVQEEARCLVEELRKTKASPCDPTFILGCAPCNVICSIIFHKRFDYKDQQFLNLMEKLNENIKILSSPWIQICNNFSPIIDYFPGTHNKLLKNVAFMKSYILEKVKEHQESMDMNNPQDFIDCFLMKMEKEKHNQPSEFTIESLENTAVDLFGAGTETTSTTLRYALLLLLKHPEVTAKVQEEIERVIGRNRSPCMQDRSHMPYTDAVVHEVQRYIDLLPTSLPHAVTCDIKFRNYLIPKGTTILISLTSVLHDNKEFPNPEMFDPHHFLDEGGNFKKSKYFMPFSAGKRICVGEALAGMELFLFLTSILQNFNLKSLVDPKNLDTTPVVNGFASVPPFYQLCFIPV

[5] = Mutagenicity in Salmonella typhimurium TA100 after 96 hrs in presence of rat liver S9 fraction by Ames test; format: toxicity, subcellular; settings: salmonella enterica subsp. enterica serovar typhimurium, s9, 96 h
[6] = Half-life in human plasma at 1 uM by HPLC-MS/MS analysis; format: ADME, cell-free
Cytochrome P450 2D6 = Cytochrome P450 2D6 (Homo sapiens, UniProt P10635); test: Inhibition of CYP2D6 in human liver microsomes using dextromethorphan as substrate at 10 uM after 10 mins by HPLC-MS/MS analysis; format: ADME
Cytochrome P450 2D6, sequence (P10635 whole entry): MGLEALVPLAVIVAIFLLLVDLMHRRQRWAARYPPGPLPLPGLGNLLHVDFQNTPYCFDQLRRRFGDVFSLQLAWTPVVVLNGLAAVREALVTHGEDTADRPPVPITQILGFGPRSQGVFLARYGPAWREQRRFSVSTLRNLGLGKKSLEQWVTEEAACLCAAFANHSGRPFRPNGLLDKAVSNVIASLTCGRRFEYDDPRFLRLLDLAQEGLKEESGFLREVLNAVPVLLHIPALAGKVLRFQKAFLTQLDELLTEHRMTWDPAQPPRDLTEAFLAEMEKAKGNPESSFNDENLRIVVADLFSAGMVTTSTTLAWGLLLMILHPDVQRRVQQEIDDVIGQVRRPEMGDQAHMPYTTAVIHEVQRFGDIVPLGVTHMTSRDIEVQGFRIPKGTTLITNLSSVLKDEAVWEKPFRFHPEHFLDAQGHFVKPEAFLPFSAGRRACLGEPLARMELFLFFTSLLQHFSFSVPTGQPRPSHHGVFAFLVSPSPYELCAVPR

[7] = Mutagenicity in Salmonella typhimurium TA100 after 96 hrs in absence of rat liver S9 fraction by Ames test; format: toxicity; settings: salmonella enterica subsp. enterica serovar typhimurium, s9, 96 h
CHO-K1 [8] = test: Clastogenic activity in CHOK1 cells after 4 hrs in absence of S9 fraction by micronucleus assay; format: toxicity, cell-based, Cricetulus griseus; settings: chinese hamster, cho-k1, 4 h
[9] = Mutagenicity in Salmonella typhimurium TA98 after 96 hrs in presence of rat liver S9 fraction by Ames test; format: toxicity, subcellular; settings: salmonella enterica subsp. enterica serovar typhimurium, s9, 96 h
[10] = Apparent permeability across basolateral to apical side in human Caco2 cells assessed as drug recovery at 5 uM after 120 mins by LC-MS/MS analysis; format: ADME, cell-based; settings: Caco-2, read-out: Drug recovery
[11] = target: T1, Prostaglandin E2 receptor EP4 subtype (Homo sapiens, UniProt P35408); test: Agonist activity at human EP4 receptor expressed in HEK293T/17 cells assessed as increase in intracellular cAMP level incubated for 30 mins by ELISA; format: functional, cell-based
T1 sequence (P35408 whole entry): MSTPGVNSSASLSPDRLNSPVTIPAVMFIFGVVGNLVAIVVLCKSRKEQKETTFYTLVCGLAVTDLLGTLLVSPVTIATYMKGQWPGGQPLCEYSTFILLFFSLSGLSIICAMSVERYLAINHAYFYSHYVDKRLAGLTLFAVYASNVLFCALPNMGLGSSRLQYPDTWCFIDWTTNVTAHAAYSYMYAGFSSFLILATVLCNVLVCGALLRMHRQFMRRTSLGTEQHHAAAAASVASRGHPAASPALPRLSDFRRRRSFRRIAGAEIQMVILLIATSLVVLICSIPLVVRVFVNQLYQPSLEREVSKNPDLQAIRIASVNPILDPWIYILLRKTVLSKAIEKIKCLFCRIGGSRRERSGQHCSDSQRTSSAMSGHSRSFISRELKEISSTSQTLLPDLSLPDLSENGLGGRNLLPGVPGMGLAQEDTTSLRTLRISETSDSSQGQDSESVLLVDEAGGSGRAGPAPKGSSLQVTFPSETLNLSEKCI

[12] = Genotoxicity in Salmonella typhimurium TA100 at 0.6 to 100 uM after 96 hrs by photometry analysis; format: toxicity; settings: salmonella enterica subsp. enterica serovar typhimurium
Cytochrome P450 3A = Cytochrome P450 3A (Homo sapiens, UniProt P08684+P20815+Q9HB55+P24462); test: Inhibition of CYP3A in human liver microsomes using midazolam as substrate at 10 uM after 10 mins by HPLC-MS/MS analysis; format: ADME
Cytochrome P450 2C19 = Cytochrome P450 2C19 (Homo sapiens, UniProt P33261); test: Inhibition of CYP2C19 in human liver microsomes using omeprazole as substrate at 10 uM after 10 mins by HPLC-MS/MS analysis; format: ADME
Cytochrome P450 2C19, sequence (P33261 whole entry): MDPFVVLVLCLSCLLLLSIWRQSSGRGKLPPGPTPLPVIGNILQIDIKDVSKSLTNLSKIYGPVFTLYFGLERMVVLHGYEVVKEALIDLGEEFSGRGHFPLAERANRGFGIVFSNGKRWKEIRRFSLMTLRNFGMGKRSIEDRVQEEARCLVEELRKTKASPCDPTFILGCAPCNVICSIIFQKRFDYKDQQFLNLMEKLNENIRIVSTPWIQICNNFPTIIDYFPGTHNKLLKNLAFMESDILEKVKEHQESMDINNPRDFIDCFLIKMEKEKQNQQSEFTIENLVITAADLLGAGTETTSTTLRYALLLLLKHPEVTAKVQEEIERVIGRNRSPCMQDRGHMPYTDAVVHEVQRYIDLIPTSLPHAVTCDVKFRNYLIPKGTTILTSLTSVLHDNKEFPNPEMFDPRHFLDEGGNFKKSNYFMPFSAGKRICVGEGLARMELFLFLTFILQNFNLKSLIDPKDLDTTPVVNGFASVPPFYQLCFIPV

[13] = Mutagenicity in Salmonella typhimurium TA98 after 96 hrs in absence of rat liver S9 fraction by Ames test; format: toxicity; settings: salmonella enterica subsp. enterica serovar typhimurium, s9, 96 h
[14] = Genotoxicity in Salmonella typhimurium TA1537 at 0.6 to 100 uM after 96 hrs by photometry analysis; format: toxicity; settings: salmonella enterica subsp. enterica serovar typhimurium
[15] = Half-life in human liver microsomes at 0.1 uM by HPLC-MS/MS analysis; format: ADME, Microsome
[16] = target: T2, Prostaglandin E2 receptor EP3 subtype (Homo sapiens, UniProt P43115); test: Displacement of [3H]PGE2 from human recombinant EP3 receptor expressed in HEK293 cell membranes after 120 mins by liquid scintillation counting method
T2 sequence (P43115 whole entry): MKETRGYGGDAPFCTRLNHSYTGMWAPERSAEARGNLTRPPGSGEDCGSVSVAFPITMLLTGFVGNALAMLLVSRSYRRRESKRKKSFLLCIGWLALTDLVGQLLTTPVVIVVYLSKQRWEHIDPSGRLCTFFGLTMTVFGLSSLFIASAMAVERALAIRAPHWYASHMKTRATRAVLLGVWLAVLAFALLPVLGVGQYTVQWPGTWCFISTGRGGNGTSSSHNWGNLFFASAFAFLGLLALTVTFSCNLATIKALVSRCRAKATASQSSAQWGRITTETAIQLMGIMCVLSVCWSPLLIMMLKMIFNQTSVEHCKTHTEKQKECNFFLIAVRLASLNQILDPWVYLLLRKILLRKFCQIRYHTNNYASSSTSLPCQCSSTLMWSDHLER

CHO-K1 [17] = test: Clastogenic activity in CHOK1 cells after 4 hrs in presence of S9 fraction by micronucleus assay; format: toxicity, cell-based, Cricetulus griseus; settings: chinese hamster, s9, 4 h
[18] = Intrinsic clearance in human liver microsomes at 0.1 uM by HPLC-MS/MS analysis; format: ADME, Microsome; settings: read-out: CLH
[19] = target: T3, Prostaglandin E2 receptor EP2 subtype (Homo sapiens, UniProt P43116); test: Agonist activity at human EP2 receptor expressed in HEK293T/17 cells assessed as increase in GalphaS-mediated CREB activation measured after 6 to 24 hrs by SEAP reporter gene-based chemiluminescence assay; format: functional, cell-based
T3 sequence (P43116 whole entry): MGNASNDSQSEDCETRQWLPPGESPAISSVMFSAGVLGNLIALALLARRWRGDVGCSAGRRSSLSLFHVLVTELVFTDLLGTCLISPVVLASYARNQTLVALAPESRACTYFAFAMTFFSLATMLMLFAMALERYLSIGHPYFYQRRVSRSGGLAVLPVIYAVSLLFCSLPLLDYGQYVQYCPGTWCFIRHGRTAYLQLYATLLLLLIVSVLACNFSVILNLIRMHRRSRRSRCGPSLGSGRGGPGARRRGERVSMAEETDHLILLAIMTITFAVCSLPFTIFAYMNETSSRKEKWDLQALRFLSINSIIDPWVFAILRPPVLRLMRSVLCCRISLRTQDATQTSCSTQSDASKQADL

[20] = target: Voltage-gated inwardly rectifying potassium channel KCNH2 (Homo sapiens, UniProt Q12809); test: Inhibition of human ERG expressed in CHOK1 cells assessed as reduction in tail current amplitude by automated patch-clamp method; format: cell-based
Voltage-gated inwardly rectifying potassium channel KCNH2, sequence (Q12809 whole entry): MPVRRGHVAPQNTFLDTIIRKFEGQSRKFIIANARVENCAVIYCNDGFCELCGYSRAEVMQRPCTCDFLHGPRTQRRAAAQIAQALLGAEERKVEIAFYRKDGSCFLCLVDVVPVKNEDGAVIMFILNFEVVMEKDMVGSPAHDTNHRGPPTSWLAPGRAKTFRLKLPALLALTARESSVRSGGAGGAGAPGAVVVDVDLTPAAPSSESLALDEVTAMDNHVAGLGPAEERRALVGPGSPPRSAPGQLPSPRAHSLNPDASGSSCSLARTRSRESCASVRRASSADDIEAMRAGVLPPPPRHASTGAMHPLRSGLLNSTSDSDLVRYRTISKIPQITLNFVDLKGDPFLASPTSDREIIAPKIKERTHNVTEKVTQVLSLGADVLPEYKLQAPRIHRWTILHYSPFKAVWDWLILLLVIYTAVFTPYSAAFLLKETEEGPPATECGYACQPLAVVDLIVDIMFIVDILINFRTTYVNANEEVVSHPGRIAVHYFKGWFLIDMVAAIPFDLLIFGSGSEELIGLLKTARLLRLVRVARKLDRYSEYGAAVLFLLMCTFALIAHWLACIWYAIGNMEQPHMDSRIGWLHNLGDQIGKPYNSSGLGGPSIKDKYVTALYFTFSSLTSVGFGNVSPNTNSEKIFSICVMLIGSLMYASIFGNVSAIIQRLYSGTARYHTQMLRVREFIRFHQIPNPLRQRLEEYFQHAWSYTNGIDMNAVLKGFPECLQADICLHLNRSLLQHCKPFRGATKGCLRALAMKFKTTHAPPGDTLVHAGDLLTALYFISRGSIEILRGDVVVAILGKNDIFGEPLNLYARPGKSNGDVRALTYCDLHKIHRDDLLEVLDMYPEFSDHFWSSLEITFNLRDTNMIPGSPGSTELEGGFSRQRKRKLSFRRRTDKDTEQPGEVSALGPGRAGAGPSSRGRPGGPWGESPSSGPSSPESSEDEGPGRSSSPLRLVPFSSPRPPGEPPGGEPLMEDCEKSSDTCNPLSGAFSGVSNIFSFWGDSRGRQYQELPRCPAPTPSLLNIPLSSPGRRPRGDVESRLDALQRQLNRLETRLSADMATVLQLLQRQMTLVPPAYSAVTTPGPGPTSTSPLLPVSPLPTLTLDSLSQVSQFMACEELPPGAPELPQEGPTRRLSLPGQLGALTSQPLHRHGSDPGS

[21] = Apparent permeability across apical to basolateral side in human Caco2 cells at 5 uM after 120 mins by LC-MS/MS analysis; format: ADME, cell-based; settings: Caco-2
[22] = target: T1, Prostaglandin E2 receptor EP4 subtype; test: Agonist activity at human EP4 receptor expressed in HEK293T/17 cells assessed as increase in GalphaS-mediated CREB activation measured after 6 to 24 hrs by SEAP reporter gene-based chemiluminescence assay; format: functional, cell-based
[23] = Apparent permeability across apical to basolateral side in MDCK-MDR1 cells 120 mins by LC-MS/MS analysis; format: ADME, cell-based, Canis lupus familiaris; settings: dog
[24] = Aqueous solubility of the compound in pH 7.4 phosphate-buffered saline at 200 uM after 24 hrs by shake-flask method; format: physicochemical
[25] = Apparent permeability across basolateral to apical side in human Caco2 cells at 5 uM after 120 mins by LC-MS/MS analysis; format: ADME, cell-based; settings: Caco-2
[26] = Mutagenicity in Salmonella typhimurium TA1537 after 96 hrs in presence of rat liver S9 fraction by Ames test; format: toxicity, subcellular; settings: salmonella enterica subsp. enterica serovar typhimurium, s9, 96 h
[27] = target: T3, Prostaglandin E2 receptor EP2 subtype; test: Agonist activity at human EP2 receptor expressed in HEK293T/17 cells assessed as increase in intracellular cAMP level incubated for 30 mins by ELISA; format: functional, cell-based
[28] = Genotoxicity in Salmonella typhimurium TA98 at 0.6 to 100 uM after 96 hrs by photometry analysis; format: toxicity; settings: salmonella enterica subsp. enterica serovar typhimurium
[29] = target: T3, Prostaglandin E2 receptor EP2 subtype; test: Agonist activity at human EP2 receptor expressed in HEK293T/17 cells assessed as increase in intracellular cAMP level at 10 uM incubated for 30 mins by ELISA relative to control; format: functional, cell-based
[30] = Mutagenicity in Salmonella typhimurium TA1535 after 96 hrs in absence of rat liver S9 fraction by Ames test; format: toxicity; settings: salmonella enterica subsp. enterica serovar typhimurium, s9, 96 h
[31] = Efflux ratio of apparent permeability across basolateral to apical over apical to basolateral side in MDCK-MDR1 cells; format: ADME, cell-based, Canis lupus familiaris; settings: dog
[32] = Apparent permeability across basolateral to apical side in MDCK-MDR1 cells 120 mins by LC-MS/MS analysis; format: ADME, cell-based, Canis lupus familiaris; settings: dog

| fraction unbound at 4 h, 10 µM [2] | efflux ratio at 2 h, 5 µM [4] | inhibition (INH) (Cytochrome P450 2C9) | half-life at 1 µM [6] [h] | inhibition (INH) (Cytochrome P450 2D6) | recovery at 2 h, 5 µM [10] [%] | EC50 [11] [nM] | inhibition (INH) (Cytochrome P450 3A) | inhibition (INH) (Cytochrome P450 2C19) | half-life at 0.1 µM [15] [h] | Ki [16] [nM] | Structure (SMILES) | Activity [3] | Activity [5] | Activity [7] | Activity (CHO-K1 [8]) | Activity [9] | Activity [12] | Activity [13] | Activity [14] | Activity (CHO-K1 [17]) | further results |
| --- | --- | --- | --- | --- | --- | --- | --- | --- | --- | --- | --- | --- | --- | --- | --- | --- | --- | --- | --- | --- | --- |
| 0.416 | 1.5 | Not Active | > 2 | Not Active | 93 | 2.63 | Not Active | Not Active | > 1 | 258 | CCC#CC[C@H](C)[C@H](O)/C=C/[C@H]1CC(F)(F)C(=O)N1CCCCCCC(=O)O | Non-Toxic | Non-Toxic | Non-Toxic | Non-Toxic | Non-Toxic | Non-Toxic | Non-Toxic | Non-Toxic | Non-Toxic | recovery [1]: 93%; microsomal CLint at 0.1 µM [18]: < 116 µL/min/mg; EC50 [19]: 7360 nM; IC50 [20]: 25900 nM; Papp A→B at 2 h, 5 µM [21]: 9.93 ×10⁻⁶ cm/s; EC50 [22]: 0.088 nM; Papp A→B at 2 h [23]: 0.59 ×10⁻⁶ cm/s; solubility thermodynamic at 24 h, 200 µM [24]: 197 µM (≈ 78.7 µg/mL); Papp B→A at 2 h, 5 µM [25]: 14.5 ×10⁻⁶ cm/s; Activity [26]: Non-Toxic; EC50 [27]: > 10000 nM; Activity [28]: Non-Toxic; Activity [29]: < 50%; Activity [30]: Non-Toxic; efflux ratio [31]: 20; Papp B→A at 2 h [32]: 11.8 ×10⁻⁶ cm/s |
| 0.558 | 1.6 | Not Active | 1.93 | Not Active | 97 | 19.9 | Not Active | Not Active | > 1 | 880 | CCC#CC[C@H](C)[C@H](O)/C=C/[C@H]1CCC(=O)N1CCCCCCC(=O)O | Non-Toxic | Non-Toxic | Non-Toxic | Non-Toxic | Non-Toxic | Non-Toxic | Non-Toxic | Non-Toxic | Non-Toxic | microsomal CLint at 0.1 µM [18]: < 116 µL/min/mg; EC50 [19]: > 10000 nM; IC50 [20]: 29000 nM; Papp A→B at 2 h, 5 µM [21]: 6.38 ×10⁻⁶ cm/s; EC50 [22]: 0.476 nM; solubility thermodynamic at 24 h, 200 µM [24]: 192 µM (≈ 69.9 µg/mL); Papp B→A at 2 h, 5 µM [25]: 10.1 ×10⁻⁶ cm/s; Activity [26]: Non-Toxic; EC50 [27]: > 10000 nM; Activity [28]: Non-Toxic; Activity [29]: < 50%; Activity [30]: Non-Toxic |
